According to patent publication US20260216109A1, “TREATMENT OF SKIN DISORDERS WITH SHORT CHAIN FATTY ACIDS” (Temple University-Of The Commonwealth System of Higher …, priority 2023, published 2026):

Test: Body weight in IMQ-induced psoriasis model mice
Type: in vivo, mouse
Protocol: Body weight was determined daily in all mice over the whole period of each study. Oral treatment with either Apremilast (25 mg/kg BID) or SFA002 (fixed dose BID) started with the disease induction on day 0. Etanercept (10 mg/kg Q3D s.c.) served as a technical control. Healthy control and IMQ control group received no placebo treatment.

CCOc1cc([C@@H](CS(C)(=O)=O)N2C(=O)c3cccc(NC(C)=O)c3C2=O)ccc1OC [Otezla, Apremilast]
body weight loss (Example 4, Apremilast 25 mg/kg BID, SCFA fixed dose BID (120 + 2,146 mg/kg/day), oral): no effect on body weight loss | body weight loss (Example 7, Apremilast 2.5, 5, 7 mg/kg BID, SCFA (120 + 1,100 mg/kg/day), alone or in combination, vs vehicle-treated IMQ disease controls): no positive influence on body weight loss | body weight loss (Example 9, Apremilast 25 mg/kg BID, SCFA fixed dose, alone or in combination, vs vehicle-treated IMQ disease controls): no positive influence on body weight loss | body weight loss (Example 12, Apremilast 12 or 25 mg/kg BID, fixed dose SCFA, alone or in combination, vs vehicle-treated IMQ disease controls): no positive influence on body weight loss
